Converted amounts (≈) assume the structure as drawn. The source made the active and inactive calls. The rule behind the calls is not given here.
Legend:
[1] = biological target: T1, Growth hormone secretagogue receptor type 1 (Homo sapiens, UniProt Q92847); experiment: Displacement of red-ghrelin from SNAP-tagged human GHSR expressed in HEK293 cells incubated for 3 hrs at 4 degC or for 1 hr at room temperature by HTRF assay; type: cell-based
[2] = biological target: T1, Growth hormone secretagogue receptor type 1; experiment: Agonist activity at SNAP-tagged human GHSR expressed in HEK293 cells assessed as stimulation of ghrelin-induced increase in IP1 accumulation at 10^-5 M measured after 30 mins by IP1-d2 derivative based HTRF assay relative to ghrelin; type: functional, cell-based; settings: filed as agonist, dose 1.0 10^-5M
[3] = biological target: T1, Growth hormone secretagogue receptor type 1; experiment: Agonist activity at SNAP-tagged human GHSR expressed in HEK293 cells assessed as stimulation of ghrelin-induced increase in IP1 accumulation at 10^-5 M measured after 30 mins by IP1-d2 derivative based HTRF assay relative to control; type: functional, cell-based; settings: filed as agonist, dose 1.0 10^-5M
[4] = biological target: T1, Growth hormone secretagogue receptor type 1; experiment: Inverse agonist activity at SNAP-tagged human GHSR expressed in HEK293 cells assessed as inhibition of ghrelin-induced IP1 response measured after 30 mins by HTRF assay; type: functional, cell-based
[5] = biological target: T1, Growth hormone secretagogue receptor type 1; settings: HEK293, filed as inverse agonist, dose 1.0 10^-5M, time 30.0 min
[6] = Toxicity in wild type C57BL6/J mouse assessed as effect on body weight at 1 nmol, icv injection for 2 mins via cannula; settings: in vivo, icv_or_intrathecal
[7] = Toxicity in wild type C57BL6/J mouse assessed as reduced activity at 1 nmol, icv injection for 2 mins via cannula; settings: in vivo, icv_or_intrathecal
[8] = Toxicity in wild type C57BL6/J mouse assessed as subdued behavior at 1 nmol, icv injection for 2 mins via cannula; settings: in vivo, icv_or_intrathecal
[9] = Toxicity in wild type C57BL6/J mouse assessed as effect on labored movement at 1 nmol, icv injection for 2 mins via cannula; settings: in vivo, icv_or_intrathecal
[10] = Toxicity in wild type C57BL6/J mouse assessed as altered breathing rate at 1 nmol, icv injection for 2 mins via cannula; settings: in vivo, icv_or_intrathecal
[11] = Toxicity in wild type C57BL6/J mouse assessed as hunched posture at 1 nmol, icv injection for 2 mins via cannula; settings: in vivo, icv_or_intrathecal
[12] = Toxicity in wild type C57BL6/J mouse assessed as appearance of spiky coat at 1 nmol, icv injection for 2 mins via cannula; settings: in vivo, icv_or_intrathecal
[13] = Toxicity in wild type C57BL6/J mouse assessed as sickness-like behavior at 1 nmol, icv injection for 2 mins via cannula; settings: in vivo, icv_or_intrathecal
[14] = tested on: Mus musculus; experiment: Suppression of compensatory hyperphagia in wild type C57BL6/J mouse assessed as reduction in cumulative food intake at 1 nmol, icv administered at 8 hrs interval for 48 hrs followed by refeeding at 2 hrs post last dose and measured for 7 days post refeeding; type: functional; parameters: scale not given: the % may be the effect or the level left; settings: time 9 day
[15] = Anti-orexigenic activity in wild type C57BL6/J mouse assessed as reduction in ghrelin-induced food intake at 1 nmol, icv administered via cannula for 2 mins pretreated for 15 mins followed by ghrelin stimulation and measured after 2 hrs relative to control; type: functional; parameters: scale not given: the % may be the effect or the level left; settings: time 135 min, 2.25 h
[16] = Toxicity in wild type C57BL6/J mouse assessed as effect on early dark cycle food intake at 1 nmol, icv injection for 2 mins via cannula measured after 5 hrs (reference value: 2591 +/- 197 mg); settings: in vivo, icv_or_intrathecal
[17] = Solubility of the compound in water; type: physicochemical
[18] = biological target: T1, Growth hormone secretagogue receptor type 1; experiment: Antagonist activity at SNAP-tagged human GHSR expressed in HEK293 cells assessed as inhibition of ghrelin-induced IP1 accumulation at 10^-5M measured after 30 mins by IP1-d2 derivative based HTRF assay relative to ghrelin; type: functional, cell-based; settings: filed as antagonist, dose 1.0 10^-5M
[19] = biological target: T1, Growth hormone secretagogue receptor type 1; experiment: Antagonist activity at SNAP-tagged human GHSR expressed in HEK293 cells assessed as inhibition of ghrelin-induced IP1 accumulation at 10^-5M measured after 30 mins by IP1-d2 derivative based HTRF assay relative to control; type: functional, cell-based; settings: filed as antagonist, dose 1.0 10^-5M
[20] = biological target: Growth hormone secretagogue receptor type 1 (Rattus norvegicus) (UniProt O08725); experiment: Inverse agonist activity at GHSR in Wistar rat pancreatic islets assessed as suppression of ghrelin-induced inhibition of glucose-stimulated insulin secretion at 1 uM after 1 hr in presence of glucose; type: tissue-based; settings: Pancreas, filed as inverse agonist
Growth hormone secretagogue receptor type 1 (Rattus norvegicus), sequence (O08725 whole entry): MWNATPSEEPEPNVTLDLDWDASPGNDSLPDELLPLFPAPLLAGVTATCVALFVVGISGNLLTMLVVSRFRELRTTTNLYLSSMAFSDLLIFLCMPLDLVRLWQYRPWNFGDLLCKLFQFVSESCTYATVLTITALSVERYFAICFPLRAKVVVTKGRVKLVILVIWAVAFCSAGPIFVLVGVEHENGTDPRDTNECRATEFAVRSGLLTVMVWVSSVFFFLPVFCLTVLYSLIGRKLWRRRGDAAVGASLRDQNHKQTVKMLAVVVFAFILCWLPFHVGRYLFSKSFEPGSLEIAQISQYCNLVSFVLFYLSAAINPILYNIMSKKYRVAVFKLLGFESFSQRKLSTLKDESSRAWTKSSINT

T1 sequence (Q92847 whole entry): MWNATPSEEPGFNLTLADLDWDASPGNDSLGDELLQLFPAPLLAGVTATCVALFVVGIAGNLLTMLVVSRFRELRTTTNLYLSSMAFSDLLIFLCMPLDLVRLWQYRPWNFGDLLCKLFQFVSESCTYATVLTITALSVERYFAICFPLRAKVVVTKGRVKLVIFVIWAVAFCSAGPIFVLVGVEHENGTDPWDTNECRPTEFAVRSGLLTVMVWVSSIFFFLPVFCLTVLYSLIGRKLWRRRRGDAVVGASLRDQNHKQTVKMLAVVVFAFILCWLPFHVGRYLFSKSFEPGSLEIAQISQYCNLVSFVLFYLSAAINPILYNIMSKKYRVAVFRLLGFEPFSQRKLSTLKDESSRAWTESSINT

**Q.** With COc1ccc(/C=C(\C#N)C(=O)OCC(=O)N[C@H](Cc2c[nH]c3ccccc23)c2nnc(CCc3ccccc3)n2Cc2ccc(OC)cc2)cc1 as the molecule, how does the Ki [1] read?
**A.** 13 nM

**Q.** What does the source list for CNCC(=O)N[C@H](Cc1c[nH]c2ccccc12)c1nnc(CCc2ccccc2)n1Cc1ccc(OC)cc1?
**A.** %max [2]: 76%; %max [3]: 100%

**Q.** With COc1ccc(Cn2c(CCc3ccccc3)nnc2[C@@H](Cc2c[nH]c3ccccc23)NC(=O)CN(C)C)cc1 as the molecule, how does the %max [2] read?
**A.** 76%

**Q.** And the %max [3]?
**A.** 96%

**Q.** Which EC50 [4] does the source give for COc1ccc(/C=C(\C#N)C(=O)NCC(=O)N[C@H](Cc2c[nH]c3ccccc23)c2nnc(CCc3ccccc3)n2Cc2ccc(OC)cc2)cc1 here?
**A.** 50 nM

**Q.** What about the Ki [1] of the same molecule?
**A.** 0.5 nM

**Q.** What about the Emax [5] of the same molecule?
**A.** 86%

**Q.** Which EC50 [4] does the source give for CCN(CC)CCc1nnc([C@@H](Cc2c[nH]c3ccccc23)NC(=O)CNC(=O)/C(C#N)=C/c2ccc(OC)cc2)n1Cc1ccc(OC)cc1 here?
**A.** 35 nM

**Q.** And the Ki [1]?
**A.** 10 nM

**Q.** What about the Emax [5] of the same molecule?
**A.** 69%

**Q.** For CC(C)C[C@H](NC(=O)[C@H](CC(C)C)NC(=O)[C@@H](Cc1c[nH]c2ccccc12)NC(=O)[C@H](Cc1ccccc1)NC(=O)[C@@H](Cc1cccc2ccccc12)NC(=O)[C@@H](N)CCCCN)C(N)=O, which Activity [6] is on record?
**A.** Non-Toxic

**Q.** What about the Activity [7] of the same molecule?
**A.** Non-Toxic

**Q.** And the Activity [8]?
**A.** Non-Toxic

**Q.** And the Activity [9]?
**A.** Non-Toxic

**Q.** What about the Activity [10] of the same molecule?
**A.** Non-Toxic

**Q.** And the Activity [11]?
**A.** Non-Toxic

**Q.** What about the Activity [12] of the same molecule?
**A.** Non-Toxic

**Q.** What about the Activity [13] of the same molecule?
**A.** Non-Toxic

**Q.** What about the Activity [14] of the same molecule?
**A.** 20.1%

**Q.** And the Activity [15]?
**A.** 67.6%

**Q.** What about the Activity [16] of the same molecule?
**A.** 2623 mg

**Q.** Which Emax [5] does the source give for COc1ccc(Cn2c(CCN3CCOCC3)nnc2[C@@H](Cc2c[nH]c3ccccc23)NC(=O)CNC(=O)/C(C#N)=C/c2ccccc2)cc1 here?
**A.** 49%

**Q.** With COc1ccc(/C=C(\C#N)C(=O)NCCC(=O)N[C@H](Cc2c[nH]c3ccccc23)c2nnc(CCc3ccccc3)n2Cc2ccc(OC)cc2)cc1 as the molecule, how does the EC50 [4] read?
**A.** 3.6 nM

**Q.** And the Ki [1]?
**A.** 14 nM

**Q.** And the Emax [5]?
**A.** 75%

**Q.** With COc1ccc(/C=C(\C#N)C(=O)NCC(=O)N[C@H](Cc2c[nH]c3ccccc23)c2nnc(CCc3c[nH]c4ccccc34)n2Cc2ccc(OC)cc2)cc1 as the molecule, how does the solubility ([17]; water, read-out: solubility) read?
**A.** 3.8 µg/mL (≈ 5.19 µM)

**Q.** With COc1ccc(Cn2c(CCc3ccccc3)nnc2[C@@H](Cc2c[nH]c3ccccc23)NC(=O)CNC(=O)C(C)(C)C#N)cc1 as the molecule, how does the %max [18] read?
**A.** 70%

**Q.** And the %max [19]?
**A.** 70%

**Q.** Which %max [18] does the source give for COc1ccc(Cn2c(CCc3ccccc3)nnc2[C@@H](Cc2c[nH]c3ccccc23)NC(=O)CNC(=O)C(C#N)Cc2ccccc2)cc1 (stereo not given in full) here?
**A.** 70%

**Q.** And the %max [19]?
**A.** 72%

**Q.** What does the source list for COc1ccc(Cn2c(CCc3ccccc3)nnc2[C@@H](Cc2c[nH]c3ccccc23)NC(=O)CN)cc1?
**A.** %max [18]: 65%; %max [19]: 65%

**Q.** With COc1ccc(Cn2c(CCc3ccccc3)nnc2[C@@H](Cc2c[nH]c3ccccc23)NC(=O)CNC(=O)/C(C#N)=C/c2ccc(O)cc2)cc1 as the molecule, how does the Activity [6] read?
**A.** Non-Toxic

**Q.** What about the Activity [7] of the same molecule?
**A.** Non-Toxic

**Q.** What about the Activity [8] of the same molecule?
**A.** Non-Toxic

**Q.** And the Activity [9]?
**A.** Non-Toxic

**Q.** What about the Activity [10] of the same molecule?
**A.** Non-Toxic

**Q.** What about the Activity [11] of the same molecule?
**A.** Non-Toxic

**Q.** And the Activity [12]?
**A.** Non-Toxic

**Q.** What about the Activity [13] of the same molecule?
**A.** Non-Toxic

**Q.** And the Activity [14]?
**A.** 12.4%

**Q.** What about the Activity [15] of the same molecule?
**A.** 30.3%

**Q.** What about the Activity [16] of the same molecule?
**A.** 2179 mg

**Q.** And the Activity [20]?
**A.** Active

**Q.** What about the solubility ([17]; buffer) of the same molecule?
**A.** Soluble

**Q.** What about the EC50 [4] of the same molecule?
**A.** 27 nM

**Q.** And the Ki [1]?
**A.** 3 nM

**Q.** What about the Emax [5] of the same molecule?
**A.** 83%

**Q.** Which %max [18] does the source give for COc1ccc(Cn2c(CCc3ccccc3)nnc2[C@@H](Cc2c[nH]c3ccccc23)NC(=O)CNC(=O)/C=C/c2ccc(F)cc2)cc1 here?
**A.** 71%

**Q.** What about the %max [19] of the same molecule?
**A.** 74%

**Q.** With COc1ccc(/C=C(\C#N)C(=O)N[C@@H](C)C(=O)N[C@H](Cc2c[nH]c3ccccc23)c2nnc(CCc3ccccc3)n2Cc2ccc(OC)cc2)cc1 as the molecule, how does the EC50 [4] read?
**A.** 1.4 nM

**Q.** What about the Ki [1] of the same molecule?
**A.** 3 nM

**Q.** What about the Emax [5] of the same molecule?
**A.** 78%

**Q.** With COc1ccc(Cn2c(CCc3ccccc3)nnc2[C@@H](Cc2c[nH]c3ccccc23)NC(=O)CNC(=O)/C(C#N)=C/c2ccc(N(C)C)cc2)cc1 as the molecule, how does the EC50 [4] read?
**A.** 89 nM

**Q.** And the Ki [1]?
**A.** 2.4 nM

**Q.** What about the Emax [5] of the same molecule?
**A.** 78%

**Q.** For COc1ccc(CC(N)C(=O)NCC(=O)N[C@H](Cc2c[nH]c3ccccc23)c2nnc(CCc3ccccc3)n2Cc2ccc(OC)cc2)cc1 (single isomer, unassigned), which EC50 [4] is on record?
**A.** 62 nM

**Q.** What about the Ki [1] of the same molecule?
**A.** 17 nM

**Q.** What about the Emax [5] of the same molecule?
**A.** 43%

**Q.** With COc1ccc(Cn2c(CCc3ccccc3)nnc2[C@@H](Cc2c[nH]c3ccccc23)NC(=O)CNC(=O)C#Cc2ccccc2)cc1 as the molecule, how does the %max [2] read?
**A.** 69%

**Q.** What about the %max [3] of the same molecule?
**A.** 95%

**Q.** For COc1ccc(Cn2c(CCc3ccccc3)nnc2[C@@H](Cc2c[nH]c3ccccc23)NC(=O)CNC(=O)/C(C#N)=C/c2ccc(F)cc2)cc1, which EC50 [4] is on record?
**A.** 14.2 nM

**Q.** And the Ki [1]?
**A.** 0.6 nM

**Q.** What about the Emax [5] of the same molecule?
**A.** 76%

**Q.** Which results are given for COc1ccc(Cn2c(CCc3ccccc3)nnc2[C@@H](Cc2c[nH]c3ccccc23)NC(=O)CNC(=O)/C(C#N)=C/c2ccc(C)cc2)cc1?
**A.** EC50 [4]: 21.5 nM; Ki [1]: 1 nM; Emax [5]: 82%

**Q.** With COc1ccc(Cn2c(CCN3CCOCC3)nnc2[C@@H](Cc2c[nH]c3ccccc23)NC(=O)CNC(=O)/C(C#N)=C/c2ccc(N(C)C)cc2)cc1 as the molecule, how does the EC50 [4] read?
**A.** 6 nM

**Q.** What about the Ki [1] of the same molecule?
**A.** 6.3 nM

**Q.** And the Emax [5]?
**A.** 64%

**Q.** Which EC50 [4] does the source give for COc1ccc(Cn2c(CCc3ccccc3)nnc2[C@@H](Cc2c[nH]c3ccccc23)NC(=O)CNC(=O)/C(C#N)=C/c2c[nH]c3ccccc23)cc1 here?
**A.** 28 nM

**Q.** What about the Ki [1] of the same molecule?
**A.** 6.3 nM

**Q.** What about the Emax [5] of the same molecule?
**A.** 79%

**Q.** With COc1ccc(Cn2c(CCc3c[nH]c4ccccc34)nnc2[C@@H](Cc2c[nH]c3ccccc23)NC(=O)CNC(=O)/C(C#N)=C/c2ccc(O)cc2)cc1 as the molecule, how does the Ki [1] read?
**A.** 30 nM

— ChEMBL document CHEMBL4665788, “Development of Nonpeptidic Inverse Agonists of the Ghrelin Receptor (GHSR) Based on the 1,2,4-Triazole Scaffold” (J Med Chem, 2020)
